Test results taken from ChEMBL document CHEMBL1159155, “An ether-based peptide analog as c-AMP-dependent protein kinase inhibitor/substrate” (Bioorg Med Chem Lett, 1994).
Non-standard residues stand in square brackets, D forms with d. Residues, ends and D or L forms follow the SMILES beside them. *: point of attachment. Bpa = N[C@@H](Cc1ccc(C(=O)c2ccccc2)cc1)C(=O)O; Npys = O=[N+]([O-])c1cccnc1S*; X1 = CC(C)CCOC[C@H](CO)N*

What was measured:
[1] = organism: Bos taurus; test: Activity against bovine heart cAMP-dependent protein kinase
[2] = Inhibition of bovine heart cAMP-dependent protein kinase (PKA); set-up: species or system Bos taurus
[3] = organism: Bos taurus; test: Affinity for bovine heart cAMP-dependent protein kinase

| Vmax [1] | Ki [2] | Km [3] | Kd [2] | Vmax [3] | Molecule |
| --- | --- | --- | --- | --- | --- |
| 0.107 µM/min/mg | 120 µM | 108 µM |  |  | CC(C)CCOC[C@H](CO)NC(=O)[C@H](C)NC(=O)[C@H](CCCN=C(N)N)NC(=O)[C@H](CCCN=C(N)N)NC(=O)[C@@H](N)CC(C)C (H-LRRA-X1) |
|  |  |  | 40 µM |  | CC(C)C[C@H](NC(=O)[C@H](CSSc1ncccc1[N+](=O)[O-])NC(=O)[C@H](C)NC(=O)[C@H](CCCN=C(N)N)NC(=O)[C@H](CCCN=C(N)N)NC(=O)[C@@H](N)CC(C)C)C(=O)NCC(=O)O (H-LRRAC(Npys)LG-OH) |
|  |  |  | 110 µM |  | CC(C)C[C@H](NC(=O)[C@H](Cc1ccc(C(=O)c2ccccc2)cc1)NC(=O)[C@H](C)NC(=O)[C@H](CCCN=C(N)N)NC(=O)[C@H](CCCN=C(N)N)NC(=O)[C@@H](N)CC(C)C)C(=O)NCC(=O)O (H-LRRA[Bpa]LG-OH) |
|  |  | 4.6 µM | 250 µM | 0.38 µM/min/mg | CC(C)C[C@H](NC(=O)[C@H](CO)NC(=O)[C@H](C)NC(=O)[C@H](CCCNC(=N)N)NC(=O)[C@H](CCCNC(=N)N)NC(=O)[C@@H](N)CC(C)C)C(=O)NCC(=O)O [KEMPTIDE] |
|  |  |  | 490 µM |  | H-LRRAALG-OH |
